Test results published in US20230374038A1, “MODULATORS OF CYSTIC FIBROSIS TRANSMEMBRANE CONDUCTANCE REGULATOR” (VERTEX PHARMACEUTICALS INCORPORATED, priority 2020, published 2023).
Like-named read-outs stand apart in the source and are kept apart here. One block for each compound: values may come before it.

Tests used:
[1] = amide bond
CFTR [2] = biological target: T1, CFTR (Homo sapiens, UniProt P13569, DEL508-508); assay: HBE Assay: Ussing chamber assay of CFTR-mediated short-circuit currents in F508del/MF-HBE cells with 1 μM Ivacaftor; format: cell-based; conditions: with 1 μM Ivacaftor, 18-24 hours, 20% human serum
T1 construct: endogenous in cells; host or cells: primary human bronchial epithelial cells, F508del/MF genotype
Outline: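 F508del/MF-HBE cells at air-liquid interface >14 days were incubated 18-24 h at 37° C with corrector (concentration range or fixed 10 μM) plus 1 μM Ivacaftor in 20% human serum, compounds kept throughout. Ussing chamber, Vhold=0 mV, 37° C, apical amiloride 30 μM; ISC (μA/cm^2) from peak 20 μM forskolin response to steady state after CFTR inhibitor cocktail.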

CFTR [3] = biological target: T2, CFTR (Homo sapiens, UniProt P13569); assay: Membrane Potential Dye, Enteroid Assay A; format: cell-based
Procedure: Base medium (ADF+++) consisted of Advanced DMEM/Ham's F12, 2 mM Glutamax, 10 mM HEPES, 1 µg/mL penicillin/streptomycin.
Intestinal enteroid maintenance medium (IEMM) consisted of ADF+++, 1× B27 supplement, 1× N2 supplement, 1.25 mM N-acetyl cysteine, 10 mM Nicotinamide, 50 ng/mL hEGF, 10 nM Gastrin, 1 pg/mL hR-spondin-1, 100 ng/mL hNoggin, TGF-b type 1 inhibitor A-83-01, 100 μg/mL Primocin, […] P38 MAPK inhibitor SB202190.
Bath 1 Buffer consisted of 1 mM MgCl2, 160 mM NaCl, 4.5 mM KCl, 10 mM HEPES, 10 mM Glucose, 2 mM CaCl2).
Chloride Free Buffer consisted of 1 mM Magnesium Gluconate, 2 mM Calcium Gluconate, 4.5 mM Potassium Gluconate, 160 mM Sodium Gluconate, 10 mM HEPES, 10 mM Glucose.
Bath1 Dye Solution consisted of Bath 1 Buffer, 0.04% Pluronic F127, […] Methyl Oxonol, 30 μM CaCCinh-A01, 30 μM Chicago Sky Blue.
Chloride Free Dye Solution consisted of Chloride Free Buffer, 0.04% Pluronic F127, 20 μM Methyl Oxonol, 30 μM CaCCinh-A01, 30 μM Chicago Sky Blue.
Chloride Free Dye Stimulation Solution consisted of Chloride Free Dye Solution, 10 μM forskolin, 100 μM IBMX, and 300 nM Compound III.
Human intestinal epithelial enteroid cells were obtained from the Hubrecht Institute for Developmental Biology and Stem Cell Research, Utrecht, The Netherlands and expanded in T-Flasks as previously described (Dekkers J F, Wiegerinck C L, de Jonge H R, Bronsveld I, Janssens H M, de Winter-de Groot K M, Brandsma A M, de Jong N W M, Bijvelds M J C, Scholte B J, Nieuwenhuis E E S, van den Brink S, Clevers H, van der Ent C K, Middendorp S and M Beekman J M. A functional CFTR assay using primary cystic fibrosis intestinal organoids. Nat Med. 2013 July; 19(7):939-45.).
Cells were recovered in cell recovery solution, collected by centrifugation at 650 rpm for 5 min at 4° C., resuspended in TryPLE and incubated for 5 min at 37° C. Cells were then collected by centrifugation at 650 rpm for 5 min at 4° C. and resuspended in IEMM containing 10 μM ROCK inhibitor (RI). The cell suspension was passed through a 40 μm cell strainer and resuspended at 1×10^6 cells/mL in IEMM containing 10 μM RI. Cells were seeded at 5000 cells/well into multi-well plates and incubated for overnight at 37° C., 95% humidity and 5% CO2 prior to assay.
Enteroid cells were incubated with test compound in IEMM for 18-24 hours at 37° C., 95% humidity and 5% CO2. […] Briefly, cells were washed 5 times in Bath 1 Buffer. Bath 1 Dye Solution was added, and the cells were incubated for 25 min at room temperature. Following dye incubation, cells were washed 3 times in Chloride Free Dye Solution. Chloride transport was initiated by addition of Chloride Free Dye Stimulation Solution and the fluorescence signal was read for 15 min. […] Chloride transport was then expressed as a percentage of the chloride transport following treatment with 3 μM (S)—N-((6-aminopyridin-2-yl)sulfonyl)-6-(3-fluoro-5-isobutoxyphenyl)-2-(2,2,4-trimethylpyrrolidin-1-yl)nicotinamide, 3 μM (R)-1-(2,2-difluorobenzo[d][1,3]dioxol-5-yl)-N-(1-(2,3-dihydroxypropyl)-6-fluoro-2-(1-hydroxy-2-methylpropan-2-yl)-1H-indol-5-yl)cyclopropanecarboxamide and 300 nM acute N-[2,4-bis(1,1-dimethylethyl)-5-hydroxyphenyl]-1,4-dihydro-4-oxoquinoline-3-carboxamide triple combination control (% Activity).

CFTR [4] = biological target: T2, CFTR; assay: Membrane Potential Dye, Enteroid Assay B; format: cell-based; conditions: for EC50: read-out: Ent. B EC50
Outline: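 Membrane-potential fluorescence read over 15 min after chloride-free stimulation (forskolin 10 μM, IBMX 100 μM, Compound III 300 nM), with CaCCinh-A01 and Chicago Sky Blue present. Enteroids had 18-24 h compound exposure at 37 °C; activity given as % of the triple-combination corrector/potentiator reference response.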

T2 sequence (P13569 with tags, fused parts or gaps DEL508-508): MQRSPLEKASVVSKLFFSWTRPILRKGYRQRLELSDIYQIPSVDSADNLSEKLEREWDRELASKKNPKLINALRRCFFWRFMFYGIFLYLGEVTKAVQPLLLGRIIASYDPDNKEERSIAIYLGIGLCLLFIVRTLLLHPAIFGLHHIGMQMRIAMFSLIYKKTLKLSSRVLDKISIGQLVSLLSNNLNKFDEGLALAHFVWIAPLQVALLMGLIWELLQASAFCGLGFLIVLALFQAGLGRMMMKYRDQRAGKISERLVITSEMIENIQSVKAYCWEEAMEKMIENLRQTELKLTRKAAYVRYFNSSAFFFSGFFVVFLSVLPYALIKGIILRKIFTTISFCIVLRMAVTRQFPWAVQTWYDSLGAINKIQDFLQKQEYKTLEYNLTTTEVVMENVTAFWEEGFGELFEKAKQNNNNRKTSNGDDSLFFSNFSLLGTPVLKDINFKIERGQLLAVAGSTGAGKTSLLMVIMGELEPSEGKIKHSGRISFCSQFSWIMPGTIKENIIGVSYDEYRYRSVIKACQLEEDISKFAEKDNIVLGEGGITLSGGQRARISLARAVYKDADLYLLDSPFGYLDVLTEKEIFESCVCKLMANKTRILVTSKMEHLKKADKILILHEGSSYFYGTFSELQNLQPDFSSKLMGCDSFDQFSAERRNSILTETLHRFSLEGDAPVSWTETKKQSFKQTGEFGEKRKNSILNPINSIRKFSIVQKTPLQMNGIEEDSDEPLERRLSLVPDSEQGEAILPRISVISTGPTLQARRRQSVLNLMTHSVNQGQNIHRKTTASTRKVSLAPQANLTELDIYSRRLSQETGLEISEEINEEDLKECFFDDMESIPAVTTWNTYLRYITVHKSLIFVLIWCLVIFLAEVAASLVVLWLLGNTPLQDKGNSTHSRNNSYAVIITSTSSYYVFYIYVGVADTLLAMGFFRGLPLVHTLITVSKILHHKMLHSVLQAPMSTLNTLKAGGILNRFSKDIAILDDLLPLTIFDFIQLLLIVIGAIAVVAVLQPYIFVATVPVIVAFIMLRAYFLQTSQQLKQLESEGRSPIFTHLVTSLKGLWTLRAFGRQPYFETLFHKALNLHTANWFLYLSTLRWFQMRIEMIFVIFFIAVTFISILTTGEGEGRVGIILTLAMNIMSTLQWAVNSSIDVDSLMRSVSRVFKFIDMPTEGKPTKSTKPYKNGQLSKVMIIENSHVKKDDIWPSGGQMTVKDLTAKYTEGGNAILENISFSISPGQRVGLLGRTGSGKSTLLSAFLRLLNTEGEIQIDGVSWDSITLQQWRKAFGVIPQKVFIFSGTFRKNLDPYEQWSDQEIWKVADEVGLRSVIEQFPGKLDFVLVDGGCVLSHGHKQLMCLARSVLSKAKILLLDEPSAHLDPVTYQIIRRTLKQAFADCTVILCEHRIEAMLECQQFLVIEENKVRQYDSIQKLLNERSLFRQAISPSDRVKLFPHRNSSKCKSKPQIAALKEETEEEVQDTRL
T1 sequence (P13569 with tags, fused parts or gaps DEL508-508): as above

Compound: Cc1ccccc1-c1nc2nc(c1C(C)(C)C)OCC1CN(CCN1CCC1(C(F)(F)F)CC1)C(=O)c1cccc(c1)S(=O)(=O)N2 (stereo not drawn) [Compound 33, 13-tert-Butyl-12-(2-methylphenyl)-18-{2-[1-(trifluoromethyl)cyclopropyl]ethyl}-15-oxa-8λ^6-thia-1,9,11,18,22-pentaazatetracyclo[15.3.1.13,7.110,14]tricosa-3(23),4,6,10(22),11,13-hexaene-2,8,8-trione]
ring closure, yield after HPLC ([1]; from Cc1ccccc1-c1nc(NS(=O)(=O)c2cccc(C(=O)O)c2)nc(OCC2CNCCN2CCC2(C(F)(F)F)CC2)c1C(C)(C)C, 14-membered ring, HATU/DIEA, DMF, 25.0 °C, 1.0 h, 3 steps): 8%
Ent. A Max Activity (CFTR [3]): +++ (+++ is >60%)
EC50 (CFTR [3]; read-out: Ent. A EC50): 1000 to 3000 nM

Compound: Cc1cccc(C)c1-c1nc2nc(c1C)O[C@H](c1ccc(C(C)(C)C)cc1)[C@@H](C)NC(=O)c1cccc(c1)S(=O)(=O)N2 [Compound 172, (10R,11R)-10-(4-tert-Butylphenyl)-6-(2,6-dimethylphenyl)-7,11-dimethyl-2,2-dioxo-9-oxa-2λ^6-thia-3,5,12,19-tetrazatricyclo[12.3.1.14,8]nonadeca-1(18),4(19),5,7,14,16-hexaen-13-one]
Ent. B Max Activity (CFTR [4]): +++ (+++ is >60%)
EC50 (CFTR [4]): < 1000 nM
ring closure, yield after HPLC ([1]; 13-membered ring, NaOtBu then HATU, THF/DMF, 77.0 mM, 2 steps): 8%

Compound: Cc1cccc(C)c1-c1nc2nc(c1F)O[C@H](c1ccc(C(C)(C)C)cc1)[C@@H](C)NC(=O)c1cccc(c1)S(=O)(=O)N2 [Compound 167, (10R,11R)-10-(4-tert-Butylphenyl)-6-(2,6-dimethylphenyl)-7-fluoro-11-methyl-2,2-dioxo-9-oxa-2λ^6-thia-3,5,12,19-tetrazatricyclo[12.3.1.14,8]nonadeca-1(18),4(19),5,7,14,16-hexaen-13-one]
Ent. B Max Activity (CFTR [4]): +++ (+++ is >60%)
EC50 (CFTR [4]): < 1000 nM
ring closure, yield after HPLC ([1]; 13-membered ring, NaOtBu then HATU, THF/DMF, 30.0 mM, 2 steps): 30%

Compound: Cc1cccc(C)c1-c1nc2nc(c1C)OCCCNC(=O)c1cccc(c1)S(=O)(=O)N2 [Compound 36, 6-(2,6-Dimethylphenyl)-7-methyl-9-oxa-2λ^6-thia-3,5,13,20-tetraazatricyclo[13.3.1.14,8]icosa-1(19),4,6,8(20),15,17-hexaene-2,2,14-trione]
Ent. B Max Activity (CFTR [4]): + (+ is <30%)
EC50 (CFTR [4]): 3000 to 30000 nM
ring closure, yield after HPLC ([1]; from Cc1cccc(C)c1-c1nc(NS(=O)(=O)c2cccc(C(=O)O)c2)nc(OCCCN)c1C, 14-membered ring, HATU/DIEA, DMF, 49.0 mM, 25.0 °C, 1.0 h): 46%

Continued, in another order:

EC50 (CFTR [2]): < 1000 nM
HBE Max Activity (CFTR [2]): +++ (+++ is >600%)
Compound: Cc1cccc(C)c1-c1nc2nc(c1C)OC[C@@H](CC(C)(C)C)N(Cc1ccc(N3CCOCC3)cn1)C(=O)c1cccc(c1)S(=O)(=O)N2 [Compound 49, (11R)-6-(2,6-Dimethylphenyl)-11-(2,2-dimethylpropyl)-7-methyl-12-{[5-(morpholin-4-yl)pyridin-2-yl]methyl}-9-oxa-2λ^6-thia-3,5,12,19-tetraazatricyclo[12.3.1.14,8]nonadeca-1(17),4(19),5,7,14(18),15-hexaene-2,2,13-trione]
ring closure, yield after HPLC ([1]; from Cc1cccc(C)c1-c1nc(NS(=O)(=O)c2cccc(C(=O)O)c2)nc(OC[C@@H](CC(C)(C)C)NCc2ccc(N3CCOCC3)cn2)c1C, 13-membered ring, CDMT/NMM, DMF, 21.0 mM, 15.0 h, 2 steps): 5%

EC50 (CFTR [2]): < 1000 nM
HBE Max Activity (CFTR [2]): +++ (+++ is >600%)
Compound: Cc1c2nc(nc1-c1ccccc1C(C)C)NS(=O)(=O)c1cccc(c1)C(=O)N(Cc1ncc(N3CCOCC3)cn1)[C@H](CC(C)(C)C)CO2 [Compound 173, (11R)-11-(2,2-Dimethylpropyl)-7-methyl-12-{[5-(morpholin-4-yl)pyrimidin-2-yl]methyl}-6-[2-(propan-2-yl)phenyl]-9-oxa-2λ^6-thia-3,5,12,19-tetraazatricyclo[12.3.1.14,8]nonadeca-1(17),4(19),5,7,14(18),15-hexaene-2,2,13-trione]
ring closure, yield after HPLC ([1]; from Cc1c(OC[C@@H](CC(C)(C)C)NCc2ncc(N3CCOCC3)cn2)nc(NS(=O)(=O)c2cccc(C(=O)O)c2)nc1-c1ccccc1C(C)C, 13-membered ring, CDMT/NMM, DMF, 57.0 mM, 19.0 h, 2 steps): 18%

Ent. B Max Activity (CFTR [4]): +++ (+++ is >60%)
EC50 (CFTR [4]): < 1000 nM
Compound: Cc1cccc(C)c1-c1nc2nc(c1C)OC[C@@H](CC(C)(C)C(F)(F)F)N(C1CC3(CCN(C(=O)OC(C)(C)C)CC3)C1)C(=O)c1cccc(c1)S(=O)(=O)N2 [Compound 156, tert-Butyl 2-[(11R)-6-(2,6-dimethylphenyl)-7-methyl-2,2,13-trioxo-11-(3,3,3-trifluoro-2,2-dimethylpropyl)-9-oxa-2λ^6-thia-3,5,12,19-tetraazatricyclo[12.3.1.14,8]nonadeca-1(17),4(19),5,7,14(18),15-hexaen-12-yl]-7-azaspiro[3.5]nonane-7-carboxylate]
ring closure, yield after HPLC ([1]; from Cc1cccc(C)c1-c1nc(NS(=O)(=O)c2cccc(C(=O)O)c2)nc(OC[C@@H](CC(C)(C)C(F)(F)F)NC2CC3(CCN(C(=O)OC(C)(C)C)CC3)C2)c1C, 13-membered ring, HATU/DIEA, DMF, 23.2 mM, 29.0 h): 22%

Ent. B Max Activity (CFTR [4]): ++ (++ is 30-60%)
EC50 (CFTR [4]): < 1000 nM
Compound: Cc1cccc(C)c1-c1nc2nc(c1C)OC[C@@H](C)N(C1CC3(CC(NC(=O)OC(C)(C)C)C3)C1)C(=O)c1cccc(c1)S(=O)(=O)N2 (stereo partly drawn) [Compound 116, tert-Butyl N-{6-[(11R)-6-(2,6-dimethylphenyl)-7,11-dimethyl-2,2,13-trioxo-9-oxa-2λ^6-thia-3,5,12,19-tetraazatricyclo[12.3.1.14,8]nonadeca-1(18),4,6,8(19),14,16-hexaen-12-yl]spiro[3.3]heptan-2-yl}carbamate]
ring closure, yield after HPLC ([1]; from Cc1cccc(C)c1-c1nc(NS(=O)(=O)c2cccc(C(=O)O)c2)nc(OC[C@@H](C)NC2CC3(CC(NC(=O)OC(C)(C)C)C3)C2)c1C, 13-membered ring, HATU/TEA, DMF, 26.7 mM, 1.0 h): 57%

Ent. B Max Activity (CFTR [4]): ++ (++ is 30-60%)
EC50 (CFTR [4]): 1000 to 3000 nM
Compound: Cc1cccc(C)c1-c1nc2nc(c1C)OC[C@@H](C)NC(=O)c1cccc(c1)S(=O)(=O)N2 [Compound 117, (11R)-6-(2,6-Dimethylphenyl)-7,11-dimethyl-9-oxa-2λ^6-thia-3,5,12,19-tetraazatricyclo[12.3.1.14,8]nonadeca-1(18),4,6,8(19),14,16-hexaene-2,2,13-trione]
ring closure, yield after HPLC ([1]; from Cc1cccc(C)c1-c1nc(NS(=O)(=O)c2cccc(C(=O)O)c2)nc(OC[C@@H](C)N)c1C, 13-membered ring, HATU/DIEA, DMF, 49.3 mM, 1.0 h): 18%
